Experimental data from article PMC5904360, “Soluble N-Ethylmaleimide-Sensitive Factor Attachment Protein Receptor-Derived Peptides for Regulation of Mast Cell Degranulation” (Frontiers in Immunology, 2018).

Columns and labels:
[1] = target: T1, SN23-Syn4-Vp8 SNARE complex (Rattus norvegicus, UniProt O70377+Q08850+Q9WUF4); test: SNARE-driven membrane fusion (total lipid mixing) assay with proteoliposomes; type: biochemical; settings: for inhibition of membrane fusion (lipid mixing): inhibitor applied to T-vesicles, T:V 9:1, 37°C, NBD dequenching, Vp2S/Vp8S at 10 µM, three independent experiments (Figure 3B-D); for inhibition of membrane fusion, peptide added before preincubation: peptide added before preincubation of T- and V-liposomes at 4°C overnight (Figure 4A)
T1 construct: Syn4 (amino acids 1–298); SNAP-23 (amino acids 1–210); VAMP8 (amino acids 1–100); GST (N, cleaved yes); made in house; host or cells: Escherichia coli Rosetta(DE3)pLysS
T1 sequence (Q08850 1-298): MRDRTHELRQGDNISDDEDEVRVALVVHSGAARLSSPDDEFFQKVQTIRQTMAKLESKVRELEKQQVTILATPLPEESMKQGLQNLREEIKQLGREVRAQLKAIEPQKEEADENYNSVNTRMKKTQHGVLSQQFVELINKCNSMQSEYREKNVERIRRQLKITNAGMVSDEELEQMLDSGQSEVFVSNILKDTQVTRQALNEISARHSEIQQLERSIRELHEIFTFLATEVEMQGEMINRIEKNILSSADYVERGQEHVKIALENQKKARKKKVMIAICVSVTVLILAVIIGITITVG
T1 sequence (O70377 1-210): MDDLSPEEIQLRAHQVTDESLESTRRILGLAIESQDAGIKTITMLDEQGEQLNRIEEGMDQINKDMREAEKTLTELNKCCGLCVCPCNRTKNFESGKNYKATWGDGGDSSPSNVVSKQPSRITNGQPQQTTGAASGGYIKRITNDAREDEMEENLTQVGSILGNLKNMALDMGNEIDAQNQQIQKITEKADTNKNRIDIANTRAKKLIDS
T1 sequence (Q9WUF4 1-100): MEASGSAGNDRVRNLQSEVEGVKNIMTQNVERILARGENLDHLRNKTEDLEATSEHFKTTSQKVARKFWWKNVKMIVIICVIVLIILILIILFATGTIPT
From the text: Total RNA was obtained from RBL-2H3 cells using TRIzol® Reagent (#15596026, Invitrogen, Carlsbad, CA, USA) and served as a template for cDNA synthesis with M-MLV reverse transcriptase (M1705, Promega, Madison, WI, USA) according to the manufacturer’s protocol. The cDNAs amplified for rat Syn4, SNAP-23, VAMP2, VAMP4, VAMP7, and VAMP8 using each primer pair ([4]), were cloned into the pGEX-4T 1 vector. The mast cell SNARE proteins [Syn4 (amino acids 1–298), SNAP-23 (amino acids 1–210), full-length VAMP2 (VpF, amino acids 1–116), VAMP4 (amino acids 1–141), and VAMP8 (amino acids 1–100)] were expressed in Escherichia coli Rosetta(DE3)pLysS (#70956, Novagen, Darmstadt, Germany) and purified as glutathione-S-transferase-tagged fusion proteins as reported previously ([8]).
To prepare the unilamellar liposomes, a 50-mM lipid mixture of palmitoyl-2-oleoylphosphatidylcholine (POPC) (#850457, Avanti Polar Lipids, Alabaster, AL, USA):1,2-dioleoyl-phosphatidylserine (DOPS) (#840035, Avanti Polar Lipids) at 65:35 mol% was dried in a glass tube under a gentle stream of nitrogen gas and then exposed to a vacuum overnight. The resultant lipid film was resuspended in dialysis buffer (25 mM HEPES and 100 mM KCl, pH 7.4) by vortexing, followed by an extrusion step with polycarbonate membrane filters having a pore size of 100 nm (#610005, Avanti Polar Lipids). To prepare proteoliposomes, binary T-SNAREs, which were pre-formed by mixing Syn4 and SNAP-23 at room temperature for 60 min, were incubated with 50 mM unilamellar liposomes for 15 min at the same temperature, resulting in a 50:1 lipid/protein molar ratio ([9]).
For the preparation of V-SNARE proteoliposomes, a 10-mM premixed lipid solution [POPC:DOPS:N-(7-nitro-2-1,3-benzoxadiazol-4-yl (NBD))-phosphatidylserine (#810198, Avanti Polar Lipids):[…] (#810150, Avanti Polar Lipids) = 62:35:1.5:1.5 (molar ratio)] was used for the preparation of fluorescent liposomes in the same manner as above. The prepared liposomes were then mixed with VAMP2 for 15 min at room temperature. The liposome/protein mixture was diluted twice to bring the concentration of n-octyl glucoside (O8001, Sigma-Aldrich) below the critical micelle concentration. After overnight dialysis against 1L dialysis buffer at 4°C to remove the detergent, SM-2 bio-beads (#1523920, Bio-Rad Laboratories, Hercules, CA, USA) were added to the sample to remove any remaining n-octyl glucoside. The solution was then centrifuged at 10,000 × g to remove the protein/lipid aggregates, and the final lipid concentrations of both the T- and V-liposomes were adjusted to 1 mM with a lipid-to-protein ratio of 50:1.
A total lipid mixing assay using the T- and V-liposomes was performed as described previously with minor modifications ([8]). Briefly, peptide inhibitors were applied to the T-vesicles at the indicated concentrations and then the T-vesicles were mixed with the V-vesicles in a 384-well plate for the initiation of fusion, with a T- to V-vesicle volume ratio of 9:1. The fusion was monitored using the dequenching of NBD fluorescence signal (excitation 465 nm/emission 530 nm). After at least 80 min of fusion, the maximum NBD signal was obtained by adding 0.1% Triton X-100™. All the lipid-mixing experiments were performed at 37°C.

[2] = test system: complexes containing both Syn4 and SN23; test: Co-immunoprecipitation of SNARE complexes in activated RBL-2H3 cells, anti-SNAP-23 blot; type: cell-based, rat; settings: peptides added to the medium after A23187 pretreatment; co-IP, blot anti-SNAP-23 (Figure 4C)
Experimental: Lysates of RBL-2H3 cells (0.5–1 × 10^6 cells), which were obtained by the addition of 1 mL lysis buffer (50 mM Tris–HCl, 150 mM NaCl, 1% Triton X-100™, 1 mM EDTA, pH 7.5) supplemented with a protease inhibitor cocktail (Calbiochem®, Merck Millipore, Billerica, MA, USA), were centrifuged at 13,000 g at 4°C to remove cell debris and precleared with 100 µL protein G Sepharose® (GE Healthcare) for 2 h at 4°C. The precleared lysates were incubated with antibodies against SNARE proteins (Syn4, SNAP-23, VAMP2, and VAMP8) for 2 h at 4°C for binding, and then the antibody–antigen complexes were precipitated by incubation with a protein G slurry overnight with constant shaking. After an extensive washing step with lysis buffer, an immunoblotting analysis was performed for the precipitates. The immunoprecipitated proteins and cell lysates were electrophoresed on 12% sodium dodecyl sulfate-polyacrylamide gel electrophoresis gels and then transferred to nitrocellulose blotting membranes (GE Healthcare). After blocking the membranes in TBST (10 mM Tris–HCl, 150 mM NaCl, and 0.05% Tween® 20, pH 8) containing 0.5% BSA and 5% skim milk for 1 h at room temperature, primary anti-SNAP-23 antibody (1:1,000 dilution) in TBST supplemented with 1% BSA and 0.01% sodium azide was added and incubated at 4°C overnight. […]

Sequence	inhibition of membrane fusion (lipid mixing) [1]	inhibition of membrane fusion, peptide added before preincubation [1]	amount of complexes containing both Syn4 and SN23 (binary Syn4-SN23 and ternary complexes) [2]
EDEMEENLTQVGSILGN [SC23N, 17-mer peptide, N-terminal region of SNAP-23 SNARE motif SC23]	inhibited membrane fusion by both the SN23-Syn4-Vp2 and SN23-Syn4-Vp8 complexes	inhibited the membrane fusion induced by both SN23-Syn4-Vp2 and SN23-Syn4-Vp8	most dramatically reduced
LQSEVEGVKNIMTQNVE [Vp8N, 17-mer peptide, N-terminal region of VAMP8 SNARE motif]	specific to the SN23-Syn4-Vp8 complex	inhibited the membrane fusion driven only by their cognate SNARE complexes	–
SARHSEIQQLERTIREL [Syn4N, 17-mer peptide, N-terminal region of syntaxin 4 SNARE motif]	inhibited membrane fusion by both the SN23-Syn4-Vp2 and SN23-Syn4-Vp8 complexes	inhibited the membrane fusion induced by both SN23-Syn4-Vp2 and SN23-Syn4-Vp8	most dramatically reduced
